Experimental data as given in article PMC4621912, “Anticancer activity of MPT0G157, a derivative of indolylbenzenesulfonamide, inhibits tumor growth and angiogenesis” (Oncotarget, 2015).
Like-named read-outs stand apart in the source and are kept apart here.

Experiments:
[1] = SRB cell proliferation assay, normal bone marrow stromal cells HS-5; assay type: cell-based; details: HS-5 normal bone marrow stromal cells, human normal bone marrow stromal cells
Procedure: (§1) Results are shown as mean ± SEM from three independent experiments. […] Cells (1 × 10^4) in 100 μL of medium in 96-well plates were incubated with vehicle (control) or vehicle with test compound for 12 or 24 h. After various treatments, 1 mg/mL of MTT was added and the plates were incubated at 37°C for an additional 2 h, then the cells were pelleted and lysed in 100 μL of dimethyl sulfoxide, and the absorbance at 550 nm was measured on a microplate reader. Cell proliferation was measured by the SRB assay. Cells (1 × 10^4) were incubated for 48 h with the indicated concentrations of test compounds, then were fixed with 10% trichloroacetic acid, stained for 30 min with SRB (0.4% in 1% acetic acid), and washed repeatedly with 1% acetic acid. Protein-bound dye was dissolved in 10 mM Tris base solution and the optical density at 510 nm measured.

[2] = test system: inflammatory factors NO, TNF-α, IL-6, PGE2; set-up: method as in PMID 25113875; details: cited from earlier work
[3] = test system: HIF-1α and VEGF expression in HCT116 cells; assay: CoCl2-induced HIF-1α / VEGF expression in HCT116 cells (western blot, RT-PCR); assay type: cell-based, human; details: 0.1 μM 24 h, then CoCl2 300 μM 4 h
Procedure: D. Cells were incubated as explained in (C), the levels of hypoxia-inducible factor-1α (HIF-1α), vascular endothelial growth factor (VEGF) mRNA were measured by RT-PCR.
Total RNA was isolated from cells using TRIzol reagent (Invitrogen). Single-strand cDNA for a polymerase chain reaction (PCR) template was synthesized from 5 μg of total RNA using random primers and Moloney murine leukemia virus reverse transcriptase (Promega). […] Equal amounts (1 μg) of each reverse-transcription product were PCR-amplified using Taq polymerase and 35 cycles of 1 min at 95°C, 1 min at 58°C, and 1 min at 72°C. The amplified cDNA was run on 1% agarose gels and visualized under UV light following staining with SYBR Safe DNA gel stain (Invitrogen).
Cells (1 × 10^6) were incubated for 10 min at 4°C in lysis buffer (20 mM HEPES, pH 7.4, 2 mM EGTA, 50 mM β-glycerophosphate, 0.1% Triton X-100, 10% glycerol, 1 mM DTT, 1 μg/mL of leupeptin, 5 μg/mL of aprotinin, 1 mM phenylmethylsulfonyl fluoride, and 1 mM sodium orthovanadate), were scraped off, incubated on ice for an additional10 min, and centrifuged at 17, 000 g for 30 min at 4°C. Protein samples (80 μg) were then electrophoresed on sodium dodecyl sulfate polyacrylamide gels (SDS-PAGE) and transferred onto a nitrocellulose membrane, which was then blocked by incubation for 30 min at room temperature with 5% fat-free milk in phosphate-buffered saline (PBS). Immunoblotting was performed by overnight incubation at 4°C with primary antibodies in PBS, followed by incubation for 1 h at room temperature with HRP-conjugated secondary antibodies. Bound antibodies were measured using ECL reagent (Advansta Corp., Menlo Park, CA, USA) and exposure to photographic film.

[4] = test system: HDAC (HeLa nuclear extract); set-up: method as in PMID 25113875; details: cited from earlier work
recombinant HDAC8 = target: T1, recombinant HDAC8 (Homo sapiens, UniProt Q9BY41); assay: Inhibition of recombinant HDAC enzyme activity (fluorogenic kit), HDAC8; assay type: biochemical; details: mean ± SEM, read-out: IC50 HDAC8 (Class I)
T1 construct: purchased BPS Bioscience Corp
T1 sequence (Q9BY41 1-377): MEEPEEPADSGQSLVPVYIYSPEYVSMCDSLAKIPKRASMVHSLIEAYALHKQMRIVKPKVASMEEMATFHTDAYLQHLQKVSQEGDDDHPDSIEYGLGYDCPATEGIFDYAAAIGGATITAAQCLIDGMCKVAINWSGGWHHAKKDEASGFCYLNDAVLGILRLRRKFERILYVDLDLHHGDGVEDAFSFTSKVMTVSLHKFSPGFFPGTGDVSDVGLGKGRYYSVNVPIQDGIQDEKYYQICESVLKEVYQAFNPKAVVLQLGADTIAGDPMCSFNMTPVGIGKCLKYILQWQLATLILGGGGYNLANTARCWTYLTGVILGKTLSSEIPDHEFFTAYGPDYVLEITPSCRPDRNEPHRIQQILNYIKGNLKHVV
Description: (§2) Fluorogenic HDAC assay kits (BPS Bioscience Corp., San Diego, CA, USA) were used to assess the ability of HDAC inhibitors to inhibit deacetylation of lysine residues on the substrate by recombinant HDAC1, 2, 3, 4, 6, or 8 according to the manufacturer's instructions.

HCT116 cells = assay: SRB cell proliferation assay, HCT116; assay type: cell-based; details: Homo sapiens, read-out: GI50, HCT116
Procedure: as §1

AsPC-1 cells = assay: SRB cell proliferation assay, AsPC-1; assay type: cell-based; details: Homo sapiens, read-out: GI50, AsPC-1
Procedure: as §1

recombinant HDAC2 = target: T2, recombinant HDAC2 (Homo sapiens, UniProt Q92769); assay: Inhibition of recombinant HDAC enzyme activity (fluorogenic kit), HDAC2; assay type: biochemical; details: mean ± SEM, read-out: IC50 HDAC2 (Class I)
T2 construct: purchased BPS Bioscience Corp
T2 sequence (Q92769 whole entry): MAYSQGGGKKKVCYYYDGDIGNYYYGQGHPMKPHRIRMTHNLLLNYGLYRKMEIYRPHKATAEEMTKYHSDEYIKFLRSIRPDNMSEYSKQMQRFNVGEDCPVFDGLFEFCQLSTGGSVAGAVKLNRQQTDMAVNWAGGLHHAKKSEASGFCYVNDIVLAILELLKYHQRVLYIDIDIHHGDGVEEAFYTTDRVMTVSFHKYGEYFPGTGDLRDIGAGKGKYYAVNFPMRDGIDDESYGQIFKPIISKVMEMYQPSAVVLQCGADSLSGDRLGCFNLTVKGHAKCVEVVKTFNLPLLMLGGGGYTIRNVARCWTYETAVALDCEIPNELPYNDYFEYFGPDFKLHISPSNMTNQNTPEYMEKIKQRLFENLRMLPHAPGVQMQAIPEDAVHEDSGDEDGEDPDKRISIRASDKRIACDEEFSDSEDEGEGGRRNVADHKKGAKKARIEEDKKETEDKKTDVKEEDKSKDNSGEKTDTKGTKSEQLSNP
Description: as §2

recombinant HDAC6 = target: T3, recombinant HDAC6 (Homo sapiens, UniProt Q9UBN7); assay: Inhibition of recombinant HDAC enzyme activity (fluorogenic kit), HDAC6; assay type: biochemical; details: mean ± SEM, read-out: IC50 HDAC6 (Class IIb)
T3 construct: purchased BPS Bioscience Corp
T3 sequence (Q9UBN7 1-1215): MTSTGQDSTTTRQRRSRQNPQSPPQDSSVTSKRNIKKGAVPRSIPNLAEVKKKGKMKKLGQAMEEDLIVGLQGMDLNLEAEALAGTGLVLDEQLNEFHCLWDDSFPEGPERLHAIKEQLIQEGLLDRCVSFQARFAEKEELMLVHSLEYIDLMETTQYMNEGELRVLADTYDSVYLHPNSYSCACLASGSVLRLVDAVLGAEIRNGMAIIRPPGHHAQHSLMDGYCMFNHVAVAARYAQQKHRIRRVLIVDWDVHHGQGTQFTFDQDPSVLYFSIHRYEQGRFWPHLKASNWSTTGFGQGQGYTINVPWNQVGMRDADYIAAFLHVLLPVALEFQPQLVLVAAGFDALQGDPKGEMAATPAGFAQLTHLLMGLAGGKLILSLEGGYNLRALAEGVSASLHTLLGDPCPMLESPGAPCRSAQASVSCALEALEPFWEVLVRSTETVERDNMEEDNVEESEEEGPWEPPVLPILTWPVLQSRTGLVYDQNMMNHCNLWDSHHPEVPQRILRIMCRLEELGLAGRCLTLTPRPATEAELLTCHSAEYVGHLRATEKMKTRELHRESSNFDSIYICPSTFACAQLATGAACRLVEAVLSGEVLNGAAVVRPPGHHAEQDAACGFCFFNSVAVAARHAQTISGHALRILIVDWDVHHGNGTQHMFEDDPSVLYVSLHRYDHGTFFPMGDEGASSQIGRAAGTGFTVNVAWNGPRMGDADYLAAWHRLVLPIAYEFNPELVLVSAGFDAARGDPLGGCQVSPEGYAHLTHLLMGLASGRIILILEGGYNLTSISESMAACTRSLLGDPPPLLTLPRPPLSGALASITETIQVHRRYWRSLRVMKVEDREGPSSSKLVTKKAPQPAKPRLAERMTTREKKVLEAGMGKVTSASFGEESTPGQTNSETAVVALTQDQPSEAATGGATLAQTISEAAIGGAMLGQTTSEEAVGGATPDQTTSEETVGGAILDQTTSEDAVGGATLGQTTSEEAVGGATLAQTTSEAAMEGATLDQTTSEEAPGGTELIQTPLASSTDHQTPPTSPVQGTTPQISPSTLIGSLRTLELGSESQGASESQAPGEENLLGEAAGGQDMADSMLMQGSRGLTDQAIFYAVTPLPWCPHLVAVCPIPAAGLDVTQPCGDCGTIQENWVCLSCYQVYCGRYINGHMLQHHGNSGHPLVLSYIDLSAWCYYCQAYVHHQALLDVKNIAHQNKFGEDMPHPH
Description: as §2

recombinant HDAC4 = target: T4, recombinant HDAC4 (Homo sapiens, UniProt P56524); assay: Inhibition of recombinant HDAC enzyme activity (fluorogenic kit), HDAC4; assay type: biochemical; details: mean ± SEM, read-out: IC50 HDAC4 (Class IIa)
T4 construct: purchased BPS Bioscience Corp
T4 sequence (P56524 627-1084 limits assumed): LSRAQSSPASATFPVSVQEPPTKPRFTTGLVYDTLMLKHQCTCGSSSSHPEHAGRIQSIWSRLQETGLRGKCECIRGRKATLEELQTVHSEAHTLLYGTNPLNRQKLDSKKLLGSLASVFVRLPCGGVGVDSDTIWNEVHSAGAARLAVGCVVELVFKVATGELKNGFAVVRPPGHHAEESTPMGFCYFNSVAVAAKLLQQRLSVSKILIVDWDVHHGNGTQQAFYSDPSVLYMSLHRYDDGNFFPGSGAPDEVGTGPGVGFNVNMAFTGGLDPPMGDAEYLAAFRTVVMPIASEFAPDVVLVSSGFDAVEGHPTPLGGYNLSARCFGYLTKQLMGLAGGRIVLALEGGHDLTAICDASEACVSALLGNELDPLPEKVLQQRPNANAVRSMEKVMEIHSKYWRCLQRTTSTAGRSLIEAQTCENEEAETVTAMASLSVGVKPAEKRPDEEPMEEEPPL
Description: as §2

[5] = test system: total HDAC activity in HCT116 cells; assay: Total HDAC enzymatic activity assay in treated HCT116 cells; assay type: cell-based; details: Homo sapiens, read-out: HDAC inhibitory IC50 in HCT116 cells (total HDAC enzyme activity)
Procedure: B. HCT116 cells (1 × 10^6) treated as explained in (A), whole-cell extracts were subjected to western blotting for the indicated proteins. Quantitative analysis of acetyl-histone H3 C. and acetyl-α-tubulin D. expression in western blot were determined by ImageQuant (Molecular Dynamics, USA). E. Immunohistochemical analysis of the HDAC1, 2 and 6 expression of a tissue microarray containing normal colon tissues and tumor tissue derived from patients with colon adenocarcinoma. Scale bars are indicated. […] Total cell lysates were collected and the total HDAC enzyme activity was analyzed using HDAC activity fluorometric assay kit (Cat No. K330–100; BioVision, Milpitax, CA, USA).

recombinant HDAC3 = target: T5, recombinant HDAC3 (Homo sapiens, UniProt O15379); assay: Inhibition of recombinant HDAC enzyme activity (fluorogenic kit), HDAC3; assay type: biochemical; details: mean ± SEM, read-out: IC50 HDAC3 (Class I)
T5 construct: purchased BPS Bioscience Corp
T5 sequence (O15379 whole entry): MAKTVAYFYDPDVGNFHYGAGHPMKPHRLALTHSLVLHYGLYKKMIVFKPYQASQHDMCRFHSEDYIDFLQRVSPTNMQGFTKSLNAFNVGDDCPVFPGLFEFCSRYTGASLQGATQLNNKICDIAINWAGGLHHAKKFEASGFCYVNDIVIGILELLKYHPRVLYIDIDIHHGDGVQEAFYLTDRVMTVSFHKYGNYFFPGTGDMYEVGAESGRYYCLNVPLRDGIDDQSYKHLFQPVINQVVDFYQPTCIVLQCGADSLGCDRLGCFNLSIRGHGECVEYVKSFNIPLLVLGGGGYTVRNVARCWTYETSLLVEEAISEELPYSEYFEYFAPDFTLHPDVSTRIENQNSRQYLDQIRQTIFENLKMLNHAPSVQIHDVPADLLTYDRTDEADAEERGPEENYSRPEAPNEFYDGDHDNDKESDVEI
T5 sequence (Q9Y618 395-489 partner limits assumed): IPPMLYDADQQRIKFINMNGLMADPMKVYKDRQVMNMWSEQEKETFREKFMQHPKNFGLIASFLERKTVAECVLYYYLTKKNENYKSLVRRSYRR
Description: as §2

[6] = test system: matrigel-induced angiogenesis; assay: In vivo matrigel plug angiogenesis assay; set-up: species or system nude mice; details: 0.1 and 1 μM in matrigel, seven days, versus control group
Description: A. After seven days, the animals were sacrificed and the plugs were excised from the mice and photographed. Scale bar represents 0.5 cm. B. Sections of H&E, Masson's trichrome stained and CD31 stained matrigel plugs were examined by light microscopy under 200 × magnification. Scale bar = 100 μm. C. Quantification of the hemoglobin contents of matrigel plugs by spectrophotometer measured at 540 nm. Data represent the mean ± SEM. *p < 0.05 and ***p < 0.001 versus control group.
Six-week-old female nude mice were divided into four groups with three animals in each group. Mice were injected subcutaneously into the abdomens with matrigel (BD Bioscience) mixed with PBS or angiogenic factors (40 ng/ml) with/without MPT0G157 (0.1 μM and 1 μM). After seven days, the animals were sacrificed and the plugs were carefully dissected and photographed, the plugs were performed hematoxylin and eosin (H&E), Masson's trichrome stain and CD31 staining. To quantify the blood vessel formation, hemoglobin content was analyzed by Drabkin's reagent kit (Sigma Chemical, St. Louis, MO).

MDA-MB-231 cells = assay: SRB cell proliferation assay, MDA-MB-231; assay type: cell-based; details: Homo sapiens, read-out: GI50, MDA-MB-231
Procedure: as §1

recombinant HDAC1 = target: T6, recombinant HDAC1 (Homo sapiens, UniProt Q13547); assay: Inhibition of recombinant HDAC enzyme activity (fluorogenic kit), HDAC1; assay type: biochemical; details: mean ± SEM, read-out: IC50 HDAC1 (Class I)
T6 construct: purchased BPS Bioscience Corp
T6 sequence (Q13547 whole entry): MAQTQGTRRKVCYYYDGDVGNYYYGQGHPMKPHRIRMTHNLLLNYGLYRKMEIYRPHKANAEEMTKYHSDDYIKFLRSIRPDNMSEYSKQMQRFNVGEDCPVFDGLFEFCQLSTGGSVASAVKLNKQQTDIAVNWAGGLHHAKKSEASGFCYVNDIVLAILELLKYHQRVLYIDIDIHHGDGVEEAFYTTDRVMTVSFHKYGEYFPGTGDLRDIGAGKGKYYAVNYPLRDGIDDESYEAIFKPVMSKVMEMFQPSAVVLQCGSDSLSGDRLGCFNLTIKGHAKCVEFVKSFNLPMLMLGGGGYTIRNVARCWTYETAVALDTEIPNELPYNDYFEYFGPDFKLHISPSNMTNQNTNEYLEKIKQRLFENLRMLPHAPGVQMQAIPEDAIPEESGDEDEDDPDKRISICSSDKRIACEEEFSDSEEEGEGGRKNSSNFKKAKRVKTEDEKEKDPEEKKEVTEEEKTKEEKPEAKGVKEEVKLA
Description: as §2

A549 cells = assay: SRB cell proliferation assay, A549; assay type: cell-based; details: Homo sapiens, read-out: GI50, A549
Procedure: as §1

HCT116 xenograft tumor = assay: HCT116 xenograft model; assay type: in vivo, nude mice; details: 15 mg/kg
Procedure: Figure 5 The effect of MPT0G157 in HCT116 xenograft model Mice bearing established HCT116 tumors (~100 mm^3) were divided into three group (n = 5) and dosed as Materials and Methods. The tumor volumes A. and body weight B. of mice were measured. Results are mean ± SEM. **p < 0.01 versus control group.
HCT116 cells were implanted subcutaneously into four week old male nude mice. When the tumors reached the average volume of 100 mm^3, the mice were randomly divided into three groups (n = 5) and then were treated with the vehicle (1% carboxymethyl cellulose + 0.5% Tween 80, 0.2 mL/mouse), MPT0G157 (15 mg/kg) by intravenously injection five on two off in the first week and intraperitoneal injection in the other weeks. The length (L) and width (W) of the tumor were measured by caliper every 3 to 4 days, and the tumor volume was calculated as L × W^2/2.

## Cc1[nH]c2ccccc2c1CCNS(=O)(=O)c1ccc(C=CC(=O)NO)cc1 [MPT0G157, N-hydroxy-3-{4-[2-(2-methyl-1H-indol-3-yl)-ethylsulfamoyl]-phenyl}-acrylamide]
[1]
  GI50 at 48 h: > 100000 nM
[2]
  suppression of inflammatory factor activities, fold compared with PXD101: 3.0–25.1 fold
[3]; HCT116
  CoCl2-induced HIF-1α protein expression: markedly inhibited
[3]; HCT116, RT-PCR
  CoCl2-induced VEGF mRNA expression: markedly inhibited
  HIF-1α mRNA levels: did not reduce
[4]; HeLa nuclear extract as the HDAC source, read-out: IC50 for inhibition of HDAC activity
  IC50: 2.8 ± 0.2 nM
[4]; compared with PXD101
  HDAC inhibition, fold compared with PXD101: 9.4 fold
Recombinant HDAC8
  IC50: > 1000 nM
HCT116 cells; HCT-116, SRB assay, 48 h
  GI50: 29 ± 2 nM
AsPC-1 cells; ASPC1, SRB assay, 48 h
  GI50: 103 ± 17 nM
Recombinant HDAC2
  IC50: 5.13 ± 0.67 nM
Recombinant HDAC6
  IC50: 14.3 ± 0.77 nM
Recombinant HDAC4
  IC50: > 1000 nM
[5]; HCT-116, HCT116 cells treated 24 h
  IC50: 470 ± 140 nM
Recombinant HDAC3
  IC50: 9.36 ± 0.7 nM
[6]
  angiogenic response (hemoglobin content of matrigel plugs): significantly suppressed the angiogenic response
MDA-MB-231 cells; MDA-MB-231, SRB assay, 48 h
  GI50: 47 ± 7 nM
Recombinant HDAC1
  IC50: 7.69 ± 1.84 nM
A549 cells; A549, SRB assay, 48 h
  GI50: 307 ± 36 nM
HCT116 xenograft tumor; HCT116 xenograft mice
  body weight loss during treatment: no significant differences in weight loss
HCT116 xenograft tumor; i.v. first week then i.p., nude mice with HCT116 tumors
  percent of tumor growth inhibition (TGI): 50.7%

## O=C(/C=C/c1cccc(S(=O)(=O)Nc2ccccc2)c1)NO [PXD101, reference compound]
HCT116 cells; HCT-116, 48 h
  GI50: 90 ± 12 nM
AsPC-1 cells; ASPC1, 48 h
  GI50: > 1000 nM
Recombinant HDAC6
  IC50: 80.3 ± 8.69 nM
Recombinant HDAC4
  IC50: 161 ± 2.36 nM
[5]; HCT-116, 24 h
  IC50: 10300 ± 2250 nM
MDA-MB-231 cells; MDA-MB-231, 48 h
  GI50: 241 ± 2 nM
A549 cells; A549, 48 h
  GI50: > 1000 nM

## O=C(CCCCCCC(=O)Nc1ccccc1)NO [SAHA]
HCT116 cells; HCT-116, 48 h
  GI50: 411 ± 37 nM
AsPC-1 cells; ASPC1, 48 h
  GI50: > 1000 nM
MDA-MB-231 cells; MDA-MB-231, 48 h
  GI50: 745 ± 43 nM
A549 cells; A549, 48 h
  GI50: > 1000 nM
